Values quoted from earlier work, collected in US20240366648A1, “NAD-AUGMENTATION THERAPY FOR PARKINSON'S DISEASE” (Vestlandets Innovasjonsselskap AS (VIS), priority 2021, published 2024).

Assays:
[1] = test system: PD patients; settings: cited from earlier work
[2] = biological target: T1, a-synuclein (Homo sapiens, UniProt P37840); settings: in vivo; cited from earlier work
T1 construct: host or cells: PD patients in a clinical trial (endogenous protein)

## C#CCN(C)[C@H](C)Cc1ccccc1 [L-Deprenyl, selegiline]
[1]
  decrease of motor decline compared to tocopherol: 50%

B1: cinpanemab: a-synuclein antibody drug (antibody, chains of the INN, looked up, V domains shown)
VH: EVQLVESGGGLVEPGGSLRLSCAVSGFDFEKAWMSWVRQAPGQGLQWVARIKSTADGGTTSYAAPVEGRFIISRDDSRNMLYLQMNSLKTEDTAVYYCTSAHWGQGTLVTVSS
VL: SYELTQPPSVSVSPGQTARITCSGEALPMQFAHWYQQRPGKAPVIVVYKDSERPSGVPERFSGSSSGTTATLTITGVQAEDEADYYCQSPDSTNTYEVFGGGTKLTVL
[2]
  clinical trial outcome in PD: did not achieve proof-of-concept and missed its primary and secondary endpoints
